Consider 17 molecules from patent EP4670717A1, “PYRROLIDINE-FUSED MYRTANOL DERIVATIVES AS INHIBITORS AND/OR DEGRADERS OF IDO1 UND USE THEREOF” (Max-Planck-Gesellschaft zur Förderung der Wissenschaften …, priority 2024, dated 2025).

As a reminder, the IC50 is the point on the concentration scale where inhibition reaches its midpoint. One may read the Dmax as the largest share of the target that was removed. A low value points to a partial loss of target.

Structures are written as SMILES. Entries after “also recorded” stand apart in the source; their conditions may differ.

Test [1] addresses T1, IDO1 (Homo sapiens, UniProt P14902).
T1 construct: BxPC3 cells were seeded in phenol red-free RPMI 1640 medium; endogenous in cells; host or cells: BxPC3 cells stimulated with IFN-γ (50 ng/mL)
Nature of the test: Kyn assay in BxPC-3 cells (Kyn levels after IFN-γ and Trp).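 As to all read-outs here: kyn levels expressed relative to DMSO-treated control cells.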 It counts as cell-based. Particulars: for IC50: BxPC-3 cells incubated with IFN-γ, Trp and the compounds for 48 h, read-out: Kyn assay IC50 ± SD.
Experimental: BxPC3 cells were seeded in phenol red-free RPMI 1640 medium in 1536-well or 384-well plates (Greiner #782086, Corning #3770) 24 h prior to the addition of compounds, IFN-γ (50 ng/mL, PeproTech) and L-Trp (380 µM, Sigmal-Aldrich). After 48 h of incubation, first cell viability was accessed by the addition of Hoechst-33342. Afterwards, trichloroacetic acid (TCA, Sigma-Aldrich) was added to a final concentration of 7 % and incubated for 10 min prior to a centrifugation step of 10 min at 1620 × g. Kyn levels were determined by means of the Kyn sensor^7 at a final concentration of 17.5 µM in sensor buffer (50 mM H3PO4 and 120 mM NaCl (pH=1)). Fluorescence intensity (excitation: 535 nm, emission: 595 nm) was measured using a Spectramax Paradigm reader (Molecular Devices). Data were normalized to the values for cells that were treated with DMSO.
For the manual assay, BxPC3 or SKOV3 cells were seeded in clear 96-well or 384-well plates, respectively, 24 h prior to compound treatment and IFN-γ (50 or 5 ng/mL, respectively) and L-Trp (380 µM) addition as described before.^7 48 h after treatment, TCA was added and Kyn levels were detected by means of 2 % w/v of p-DMAB (Ehrlich reagent) in acetic acid as described by Braun et al^29. The absorbance of the Ehrlich reagent was detected at 492 nm and at 650 nm as background control was measured on Spark® multimode microplate plate reader (Tecan, Austria). Kyn levels were determined by subtracting the absorbance value at 650 nm and presented relative to the DMSO control. Dose-response curves and IC50 values were generated and fitted with GraphPad Prism 6.0 (GraphPad software, USA) using four-parameter variable slope non-linear regression curve fit.
Cells were incubated with IFN-γ, Trp and the compounds for 48 h prior to detection of Kyn levels.

Test [2] addresses T2, recombinant human IDO1 (rhIDO1) (Homo sapiens, UniProt P14902).
T2 construct: Full-length rhIDO protein (1 µM) in 50 mM potassium phosphate buffer; GST (cleaved yes); made in house; host or cells: E. coli
Briefly: IDO1 enzymatic assay with recombinant protein, Kyn detection with p-DMAB. The class given is biochemical. Particulars: in vitro inhibition at 59 uM; pre-incubated with compounds at 37°C for 40 min. An excerpt: Reduction of the kynurenine level in the cell-based model employed for initial SAR exploration can be due to inhibition of enzymatic activity, degradation of IDO1, or both (Table B-2). In order to differentiate between these different activities, we explored the modes of action of selected compounds in an in vitro assay employing recombinant human IDO1 (rhIDO1) monitoring enzymatic activity only, and we characterized the degradation efficiency by means of Western blotting, determining maximum degradation levels at 0.1µM (Dmax) and half maximum degradation concentration (DC50) (Table B-2). Table B-2 in vitro inhibition and degradation of IDO1 by selected compounds. […] Data are mean values ± SD (n = 4, except for compounds 1, 11, and 19 (n=2)). […] Data are mean values of n biological replicates. Dmax corresponds to maximum levels of IDO1 degradation at 0.1 µM.
Full-length rhIDO protein (1 µM) in 50 mM potassium phosphate buffer (50 mM KH2PO4 and 50 mM K2HPO4, pH 6.5) was incubated with the respective compounds for 40 min at 37 °C prior to the addition of 10 mM ascorbic acid, 10 µM methylene blue, 2 mM Trp and 100 µg/mL catalase (Sigma-Aldrich, C100). Samples were incubated for 60 min followed by the addition of trichloroacetic acid to a final concentration of 7 % and further incubation for 30 min at 37 °C. Kyn levels were detected by the addition of an equal volume of 2 % (w/v) p-DMAB in acetic acid and absorbance was measured at 492 nm and 650 nm as a background control. Values are presented relative to the DMSO control. Dose-response curves and IC50 values were generated and fitted with GraphPad Prism 6.0 (GraphPad software, USA) using four-parameter variable slope non-linear regression curve fit.

Test [3] concerns the target T1, IDO1. Nature of the test: IDO1 degradation in BxPC3 cells, IDO1 protein levels by immunoblotting.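 As to all read-outs here: IDO1 bands on Western blots detected with fluorescent dye-labelled secondary antibodies and quantified by band intensity, values are means of n biological replicates.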 The class given is cell-based. As to conditions: 50 ng/ml IFN-γ 24 h, washout, compound (100 nM) 24 h, maximum IDO1 degradation at 0.1 µM; for Dmax at 0.1 µM: BXPC-3, BxPC3 cells; for Dmax [%] (n): BxPC3 cells. (Immunoblotting shows a protein as a band on a membrane.)
Experimental: To analyze IDO1 levels, IFN-γ-stimulated BxPC3 cells (50 ng/mL IFN-γ), U2OS cells (5 ng/mL IFN-γ), HEK^rhIDO1 (HEK293T cells electroporated with rhIDO1), SKOV3 and BT549 cells were treated with compounds for the indicated times (6 h to 24 h) followed by cell lysis (150 mM sodium chloride in 50 mM Tris (pH 8.0) and 1% NP-40 Alternative, protease and phosphatase inhibitors). Protein concentrations were determined (DC protein assay, Bio-Rad) followed by addition of 1 × SDS loading buffer and protein separation by a 10% SDS-PAGE. Separated protein samples were transferred to a polyvinylidene difluoride (PVDF) membrane using a wet-tank blotting system (Bio-Rad). IDO1 as well as vinculin as a loading were detected using the primary antibodies anti-IDO1 (ab211017, abcam or 14-9750-80, Thermo Fisher), anti-vinculin (V9131, Thermo Fisher) and anti-β-actin (ab8227, abcam) in 5 % milk in PBS-buffered saline with 0.05 % (v/v) Tween-20 (PBS-T). Primary antibodies were incubated at 4°C overnight and detected with IRDye-conjugated secondary antibodies (LI-COR Biosciences). IDO1 protein level in BT549 and SKOV3 cells was detected with HRP conjugated secondary antibody and SuperSignal™ West Dura Extended Duration Substrat (Thermo Fisher Scientific). Washing steps were performed with PBS-T. Protein bands were visualized by ChemiDoc™ MP (Bio-Rad) using a fluorescent readout. Band intensities were quantified using Image Lab software.
In order to differentiate between these different activities, we explored the modes of action of selected compounds in an in vitro assay employing recombinant human IDO1 (rhIDO1) monitoring enzymatic activity only, and we characterized the degradation efficiency by means of Western blotting, determining maximum degradation levels at 0.1µM (Dmax) and half maximum degradation concentration (DC50) (Table B-2). […] Data are mean values of n biological replicates. Dmax corresponds to maximum levels of IDO1 degradation at 0.1 µM.

T2 sequence (P14902 whole entry): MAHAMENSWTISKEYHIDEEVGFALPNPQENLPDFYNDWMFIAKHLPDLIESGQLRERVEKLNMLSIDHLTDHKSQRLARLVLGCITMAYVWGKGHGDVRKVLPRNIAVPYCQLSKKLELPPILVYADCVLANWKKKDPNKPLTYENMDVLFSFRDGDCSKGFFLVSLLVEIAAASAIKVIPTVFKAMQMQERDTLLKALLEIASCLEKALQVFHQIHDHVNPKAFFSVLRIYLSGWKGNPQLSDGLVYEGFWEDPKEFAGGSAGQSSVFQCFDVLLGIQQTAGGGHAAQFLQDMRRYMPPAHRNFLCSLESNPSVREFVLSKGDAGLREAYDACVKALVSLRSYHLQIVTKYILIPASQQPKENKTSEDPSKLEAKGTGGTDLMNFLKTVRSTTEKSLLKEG
T1 sequence (P14902 whole entry): as above

As for `Cc1ccc(NC(=O)OC[C@]23CN(S(=O)(=O)c4ccc(C(C)(C)C)cc4)C[C@H]2C[C@H]2C[C@@H]3C2(C)C)cc1` [compound 1, ((3aS,4R,6R,7aS)-2-((4-(tert-butyl)phenyl)sulfonyl)-5,5-dimethyloctahydro-3aH-4,6-methanoisoindol-3a-yl)methyl p-tolylcarbamate], the IC50 on IDO1 [1] lay within 200 to 1000 nM. In addition, in test [2], the “rhIDO1 enzymatic activity Inhibition [%]” value was “not active; also recorded: inactive”.

Take `CC(C)(C)Cc1ccc(S(=O)(=O)N2C[C@H]3C[C@H]4C[C@H](C4(C)C)[C@@]3(COC(=O)Nc3ccc(I)cc3)C2)cc1` [compound 47, ((3aS,4R,6R,7aS)-5,5-dimethyl-2-((4-neopentylphenyl)sulfonyl)octahydro-3aH-4,6-methanoisoindol-3a-yl)methyl (4-iodophenyl)carbamate]: the IC50 at IDO1 [1] lay in the range of 200 to 1000 nM.

On to `CCC(C)(C)c1ccc(S(=O)(=O)N2C[C@H]3C[C@H]4C[C@H](C4(C)C)[C@@]3(COC(=O)Nc3ccc(I)cc3)C2)cc1` [compound 48, ((3aS,4R,6R,7aS)-5,5-dimethyl-2-((4-(tert-pentyl)phenyl)sulfonyl)octahydro-3aH-4,6-methanoisoindol-3a-yl)methyl (4-iodophenyl)carbamate], for which, on IDO1 [1], the 50% inhibitory concentration (IC50) is less than 200 nM.

For the molecule `CC1(C)[C@H]2C[C@@H]3CN(S(=O)(=O)c4ccc([Si](C)(C)C)cc4)C[C@]3(COC(=O)Nc3ccc(I)cc3)[C@@H]1C2` [compound 50, ((3aS,4R,6R,7aS)-5,5-dimethyl-2-((4-(trimethylsilyl)phenyl)sulfonyl)octahydro-3aH-4,6-methanoisoindol-3a-yl)methyl (4-iodophenyl)carbamate], on IDO1 [1], the IC50 was 200 to 1000 nM.

On to `COc1cc(C(C)(C)C)ccc1S(=O)(=O)N1C[C@H]2C[C@H]3C[C@H](C3(C)C)[C@@]2(COC(=O)Nc2ccc(I)cc2)C1` [compound 55, ((3aS,4R,6R,7aS)-2-((4-(tert-butyl)-2-methoxyphenyl)sulfonyl)-5,5-dimethyloctahydro-3aH-4,6-methanoisoindol-3a-yl)methyl (4-iodophenyl)carbamate], for which the IC50 at IDO1 [1] was less than 200 nM. On IDO1 [3], the greatest degradation seen (Dmax) at 0.1 µM lay within 55 to 59% and the “Dmax [%] (n)” value was 59 ± 16 (3) %.

As to `CC(C)(C)c1ccc(S(=O)(=O)N2C[C@H]3C[C@H]4C[C@H](C4(C)C)[C@@]3(COC(=O)Nc3ccc(I)cc3)C2)c(I)c1` [compound 57, ((3aS,4R,6R,7aS)-2-((4-(tert-butyl)-2-iodophenyl)sulfonyl)-5,5-dimethyloctahydro-3aH-4,6-methanoisoindol-3a-yl)methyl (4-iodophenyl)carbamate], the concentration for half-maximal inhibition (IC50) on IDO1 [1] is less than 200 nM. On IDO1 [3], the Dmax at 0.1 µM lay in the range of 55 to 59% and the “Dmax [%] (n)” value is 55 ± 5 (3) %.

Regarding `COCCOCC(C)(C)c1ccc(S(=O)(=O)N2C[C@H]3C[C@H]4C[C@H](C4(C)C)[C@@]3(COC(=O)Nc3ccc(I)cc3)C2)cc1` [compound 58, ((3aS,4R,6R,7aS)-2-((4-(1-(2-methoxyethoxy)-2-methylpropan-2-yl)phenyl)sulfonyl)-5,5-dimethyloctahydro-3aH-4,6-methanoisoindol-3a-yl)methyl (4-iodophenyl)carbamate], the IC50 on IDO1 [1] is less than 200 nM.

`CC(C)(C(=O)N1CCOCC1)c1ccc(S(=O)(=O)N2C[C@H]3C[C@H]4C[C@H](C4(C)C)[C@@]3(COC(=O)Nc3ccc(I)cc3)C2)cc1` [compound 59, ((3aS,4R,6R,7aS)-5,5-dimethyl-2-((4-(2-methyl-1-morpholino-1-oxopropan-2-yl)phenyl)sulfonyl)octahydro-3aH-4,6-methanoisoindol-3a-yl)methyl (4-iodophenyl)carbamate]: the concentration for half-maximal inhibition (IC50) on IDO1 [1] is 5000 to 10000 nM.

`CN(C)C(=O)C(C)(C)c1ccc(S(=O)(=O)N2C[C@H]3C[C@H]4C[C@H](C4(C)C)[C@@]3(COC(=O)Nc3ccc(I)cc3)C2)cc1` [compound 60, ((3aS,4R,6R,7aS)-2-((4-(1-(dimethylamino)-2-methyl-1-oxopropan-2-yl)phenyl)sulfonyl)-5,5-dimethyloctahydro-3aH-4,6-methanoisoindol-3a-yl)methyl (4-iodophenyl)carbamate]: the IC50 at IDO1 [1] lay in the range of 200 to 1000 nM.

Take `CN(C)CC(C)(C)c1ccc(S(=O)(=O)N2C[C@H]3C[C@H]4C[C@H](C4(C)C)[C@@]3(COC(=O)Nc3ccc(I)cc3)C2)cc1` [compound 61, ((3aS,4R,6R,7aS)-2-((4-(1-(dimethylamino)-2-methylpropan-2-yl)phenyl)sulfonyl)-5,5-dimethyloctahydro-3aH-4,6-methanoisoindol-3a-yl)methyl (4-iodophenyl)carbamate]: the IC50 on IDO1 [1] is 1000 to 5000 nM.

For `COC(=O)CC(C)(C)c1ccc(S(=O)(=O)N2C[C@H]3C[C@H]4C[C@H](C4(C)C)[C@@]3(COC(=O)Nc3ccc(I)cc3)C2)cc1` [compound 62, Methyl 3-(4-(((3aS,4R,6R,7aS)-3a-((((4-iodophenyl)carbamoyl)oxy)methyl)-5,5-dimethyloctahydro-2H-4,6-methanoisoindol-2-yl)sulfonyl)phenyl)-3-methylbutanoate], the IC50 at IDO1 [1] was less than 200 nM.

Turning to `CCOC(=O)C(C)(C)c1ccc(S(=O)(=O)N2C[C@H]3C[C@H]4C[C@H](C4(C)C)[C@@]3(COC(=O)Nc3ccc(I)cc3)C2)cc1` [compound 64, Ethyl 2-(4-(((3aS,4R,6R,7aS)-3a-((((4-iodophenyl)carbamoyl)oxy)methyl)-5,5-dimethyloctahydro-2H-4,6-methanoisoindol-2-yl)sulfonyl)phenyl)-2-methylpropanoate], the half-maximal inhibitory concentration (IC50) on IDO1 [1] fell in the range of 200 to 1000 nM.

Turning to `COC(=O)C(C)(C)c1ccc(S(=O)(=O)N2C[C@H]3C[C@H]4C[C@H](C4(C)C)[C@@]3(COC(=O)Nc3ccc(I)cc3)C2)c(OC)c1` [compound 66, Methyl 2-(4-(((3aS,4R,6R,7aS)-3a-((((4-iodophenyl)carbamoyl)oxy)methyl)-5,5-dimethyloctahydro-2H-4,6-methanoisoindol-2-yl)sulfonyl)-3-methoxyphenyl)-2-methylpropanoate], the IC50 at IDO1 [1] was less than 200 nM.

Consider `COc1cc(C(C)(C)C(=O)O)ccc1S(=O)(=O)N1C[C@H]2C[C@H]3C[C@H](C3(C)C)[C@@]2(COC(=O)Nc2ccc(I)cc2)C1` [compound 67, 2-(4-(((3aS,4R,6R,7aS)-3a-((((4-iodophenyl)carbamoyl)oxy)methyl)-5,5-dimethyloctahydro-2H-4,6-methanoisoindol-2-yl)sulfonyl)-3-methoxyphenyl)-2-methylpropanoic acid], for which the IC50 at IDO1 [1] was less than 200 nM. Further, the greatest degradation seen (Dmax) at 0.1 µM at IDO1 [3] was 0%.

For `COC(=O)C(C)(C)c1ccc(S(=O)(=O)N2C[C@H]3C[C@H]4C[C@H](C4(C)C)[C@@]3(COC(=O)Nc3ccc(I)cc3)C2)c(Cl)c1` [compound 68, Methyl 2-(3-chloro-4-(((3aS,4R,6R,7aS)-3a-((((4-iodophenyl)carbamoyl)oxy)methyl)-5,5-dimethyloctahydro-2H-4,6-methanoisoindol-2-yl)sulfonyl)phenyl)-2-methylpropanoate], the 50% inhibitory concentration (IC50) at IDO1 [1] is less than 200 nM. Moreover, in test [2], the “rhIDO1 enzymatic activity Inhibition [%]” value was “inactive”.

With `C#Cc1ccc(NC(=O)OC[C@]23CN(S(=O)(=O)c4ccc(C(C)(C)C(=O)O)cc4C)C[C@H]2C[C@H]2C[C@@H]3C2(C)C)cc1` [compound 75, 2-(4-(((3aS,4R,6R,7aS)-3a-((((4-ethynylphenyl)carbamoyl)oxy)methyl)-5,5-dimethyloctahydro-2H-4,6-methanoisoindol-2-yl)sulfonyl)-3-methylphenyl)-2-methylpropanoic acid], on IDO1 [1], the 50% inhibitory concentration (IC50) is less than 200 nM. Besides, the “activity in the cell-based kynurenine assay” value at IDO1 [1] (result in words) was “low nanomolar range”. The molecule also displayed a Dmax at 0.1 µM on IDO1 [3] of 27 ± 14%.

Regarding `C#Cc1ccc(NC(=O)OC[C@]23CN(S(=O)(=O)c4ccc(C5(C(F)(F)F)N=N5)cc4)C[C@H]2C[C@H]2C[C@@H]3C2(C)C)cc1` [compound 76, ((3aS,4R,6R,7aS)-5,5-dimethyl-2-((4-(3-(trifluoromethyl)-3H-diazirin-3-yl)phenyl)sulfonyl)octahydro-3aH-4,6-methanoisoindol-3a-yl)methyl (4-ethynylphenyl) carbamate], at IDO1 [1], the IC50 is less than 200 nM.
